Literature values as cited in patent US20130071408A1, “Methods for Diagnosis and Treatment of Non-Insulin Dependent Diabetes Mellitus” (priority 2010, published 2013).

Biological target: CD44 and HA (Homo sapiens, UniProt P16070)
Conditions: cell-based assay; read-out: IC50 value, inhibits the binding of CD44 and HA

Sequence of CD44 and HA (P16070 21-742): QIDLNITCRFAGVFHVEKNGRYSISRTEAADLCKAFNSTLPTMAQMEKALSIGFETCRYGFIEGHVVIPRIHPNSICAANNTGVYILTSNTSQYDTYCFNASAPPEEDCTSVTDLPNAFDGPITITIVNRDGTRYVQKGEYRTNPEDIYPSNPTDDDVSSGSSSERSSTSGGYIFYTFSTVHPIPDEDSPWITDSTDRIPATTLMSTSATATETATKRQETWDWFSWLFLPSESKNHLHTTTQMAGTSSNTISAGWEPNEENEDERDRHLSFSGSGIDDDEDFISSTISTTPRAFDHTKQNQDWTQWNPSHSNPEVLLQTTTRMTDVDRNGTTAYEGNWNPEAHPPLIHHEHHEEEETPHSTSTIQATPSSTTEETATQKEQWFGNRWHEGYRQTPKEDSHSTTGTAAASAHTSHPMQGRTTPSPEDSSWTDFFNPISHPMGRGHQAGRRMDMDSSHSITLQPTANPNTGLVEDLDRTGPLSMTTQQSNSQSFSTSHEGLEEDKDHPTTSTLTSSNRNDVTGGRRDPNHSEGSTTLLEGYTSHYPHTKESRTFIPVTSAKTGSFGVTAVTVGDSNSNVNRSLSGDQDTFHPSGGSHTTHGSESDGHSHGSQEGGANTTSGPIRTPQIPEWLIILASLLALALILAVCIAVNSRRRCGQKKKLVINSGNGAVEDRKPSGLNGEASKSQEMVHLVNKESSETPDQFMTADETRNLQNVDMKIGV

## CCCCCCC(O)CCCC(CCCCCCCCCCCCCC(O)C(=O)O)OC1OCC(O)C(O)C1OC1OCC(OC(C)=O)C(O)C1OC1OC(COC(C)=O)C(O)C(O)C1O (stereo not shown) [F-19848 A]
  IC50: 23.5 µM
